# Test results from publication PMC4113806, “Characterization of ACE Inhibitory Peptides from Mactra veneriformis Hydrolysate by Nano-Liquid Chromatography Electrospray Ionization Mass Spectrometry (Nano-LC-ESI-MS) and Molecular Docking” (Marine Drugs, 2014).
# Values joined by “and” are separate entries in the source; they are usually repeats but may differ in a detail not shown here. Equal entries are not always repeated. Residues, ends and D or L forms follow the SMILES beside them. No end group written: not given here.
# Target: T1, angiotensin I-converting enzyme (ACE) (Oryctolagus cuniculus, UniProt P12822)
# T1 construct: purchased Sigma Chemical Co. (St. Louis, MO, USA)
# T1 sequence (P12822 34-1310): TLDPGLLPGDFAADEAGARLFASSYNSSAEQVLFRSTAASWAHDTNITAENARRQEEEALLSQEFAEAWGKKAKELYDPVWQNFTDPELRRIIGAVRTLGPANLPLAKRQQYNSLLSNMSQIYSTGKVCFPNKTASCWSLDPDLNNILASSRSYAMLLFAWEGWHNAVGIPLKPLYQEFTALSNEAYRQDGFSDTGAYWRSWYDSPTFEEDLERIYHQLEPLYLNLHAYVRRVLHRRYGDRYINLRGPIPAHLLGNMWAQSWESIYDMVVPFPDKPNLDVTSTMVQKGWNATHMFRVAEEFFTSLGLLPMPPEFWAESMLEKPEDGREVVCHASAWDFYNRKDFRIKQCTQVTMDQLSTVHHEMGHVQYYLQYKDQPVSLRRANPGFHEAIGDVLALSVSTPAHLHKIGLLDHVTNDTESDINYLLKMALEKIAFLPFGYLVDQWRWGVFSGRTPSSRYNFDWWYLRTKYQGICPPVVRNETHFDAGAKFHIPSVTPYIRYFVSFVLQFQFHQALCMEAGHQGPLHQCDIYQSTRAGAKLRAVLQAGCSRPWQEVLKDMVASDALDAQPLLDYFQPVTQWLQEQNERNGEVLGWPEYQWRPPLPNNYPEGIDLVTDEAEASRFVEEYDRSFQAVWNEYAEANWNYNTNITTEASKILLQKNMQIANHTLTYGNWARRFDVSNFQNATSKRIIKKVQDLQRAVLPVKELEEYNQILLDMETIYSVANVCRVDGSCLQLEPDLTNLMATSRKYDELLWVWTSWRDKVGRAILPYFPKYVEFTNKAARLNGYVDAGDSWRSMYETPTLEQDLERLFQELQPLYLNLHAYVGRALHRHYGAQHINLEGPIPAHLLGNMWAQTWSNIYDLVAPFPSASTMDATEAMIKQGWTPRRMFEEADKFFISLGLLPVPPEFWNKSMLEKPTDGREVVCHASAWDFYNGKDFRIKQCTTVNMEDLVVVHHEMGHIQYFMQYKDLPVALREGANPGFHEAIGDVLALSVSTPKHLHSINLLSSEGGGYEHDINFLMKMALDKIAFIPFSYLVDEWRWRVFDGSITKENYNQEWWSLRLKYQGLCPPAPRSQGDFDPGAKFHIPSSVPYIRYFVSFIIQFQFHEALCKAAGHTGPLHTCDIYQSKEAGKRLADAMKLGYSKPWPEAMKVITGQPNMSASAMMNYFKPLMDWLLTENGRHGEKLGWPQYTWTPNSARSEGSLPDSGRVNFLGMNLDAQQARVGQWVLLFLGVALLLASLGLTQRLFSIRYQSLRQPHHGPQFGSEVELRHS
# Experiment: ACE inhibitory activity assay (HHL substrate, HPLC detection of hippuric acid)
# Type: biochemical
# Details: chemically synthesized peptides
# Description: ACE inhibitory activity was measured as previously described by Cushman and Cheung with minor modifications. A 10 μL sample solution (50 mM borate, pH 8.3) was added to 30 μL 2.5 mM HHL solution and incubated for 5 min at 37 °C. Subsequently, 20 μL of 0.1 U/mL ACE solution (50 mM borate, 0.3 M NaCl, pH 8.3) was added and the mixture was incubated at 37 °C for 60 min. The reaction was terminated by adding 70 μL of 1 M HCl. A blank sample of buffer alone was used as a negative control. Samples were filtered through a 0.45 μm nylon syringe filter and then separated on a C18 column (4.6 mm × 150 mm, 5 μm). HA and HHL were detected by absorbance at 228 nm. The column was eluted at a flow rate of 0.8 mL/min using a mobile phase composed of (A) 0.05% TFA in water and (B) 0.05% TFA in acetonitrile. The elution was carried out using a gradient of 10%–60% B in the first 10 min followed by 60%–10% B in the next 2 min. HA was quantified by integration of peak areas (A). Percent ACE inhibition was calculated according to the following equation: [drawing 1] (1)
# The ACE inhibitory peptides identified by nano-LC MS/MS were synthesized using the solid phase method and purified by HPLC by GenScript Corporation (Nanjing, China). The ACE inhibitory activity of these chemically synthesized peptides was determined as described in Section 3.3.
row,Compound,IC50
1,CC(C)C[C@H](N)C(=O)N[C@@H](CCCNC(=N)N)C(=O)O [LR],158 µM
2,CC(C)C[C@H](NC(=O)[C@H](C)NC(=O)[C@@H](N)CC(C)C)C(=O)N[C@@H](CCCNC(=N)N)C(=O)O [LALR] (H-LALR-OH),1270 µM
3,HFEAMR [HFEAMR],192 µM
4,LLMPK [LLMPK],686 µM
5,LGALPF [LGALPF],2690 µM
6,N=C(N)NCCC[C@H](NC(=O)[C@H](CCCCN)NC(=O)[C@@H](N)Cc1ccccc1)C(=O)O [FKR] (H-Phe-Lys-Arg-OH),77.9 µM
7,CC(C)C[C@H](NC(=O)[C@H](CC(C)C)NC(=O)[C@@H](N)CC(C)C)C(=O)N[C@@H](CCCNC(=N)N)C(=O)O [LLLR] (H-LLLR-OH),1000 µM
8,NC(N)=NCCC[C@H](NC(=O)[C@@H](N)CCCN=C(N)N)C(=O)O [RR] (H-Arg-Arg-OH),482 µM
9,CC(C)C[C@H](NC(=O)[C@H](CCCCN)NC(=O)[C@@H](N)CC(C)C)C(=O)N1CCC[C@H]1C(=O)O [LKLP] (H-LKLP-OH),367 µM
10,LYHVL [LYHVL],17.5 µM
11,CC(C)C[C@H](NC(=O)[C@@H](N)CC(C)C)C(=O)N[C@@H](CCCNC(=N)N)C(=O)N[C@@H](Cc1c[nH]cn1)C(=O)O [LLRH] (H-LLRH-OH),308 µM
12,CC(C)C[C@H](N)C(=O)N[C@@H](CCC(=O)O)C(=O)NCC(=O)N[C@@H](CCCNC(=N)N)C(=O)O [LEGR] (H-LEGR-OH),1090 µM
13,LLHSPP [LLHSPP],222 µM
14,CC(C)[C@H](N)C(=O)N[C@@H](CCCCN)C(=O)N[C@@H](Cc1ccccc1)C(=O)O [VKF] (H-Val-Lys-Phe-OH),10.4 µM
15,CC(C)C[C@H](N)C(=O)N[C@@H](Cc1ccccc1)C(=O)N[C@@H](CCCNC(=N)N)C(=O)O [LFR] (H-Leu-Phe-Arg-OH),31.8 µM
16,VFKAF [VFKAF],100 µM
17,LASPTM [LASPTM],59.8 µM
18,LGECGGR [LGECGGR],233 µM
19,LFVAAP [LFVAAP],70.2 µM
20,VVCVPW [VVCVPW],4.07 µM and 4.1 µM
21,MPFLFK [MPFLFK],92.4 µM
22,CC(C)C[C@H](N)C(=O)N[C@H](C(=O)N[C@@H](CCCCN)C(=O)N[C@@H](Cc1ccccc1)C(=O)O)C(C)C [LVKF] (H-LVKF-OH),24.6 µM
23,PLFPK [PLFPK],41.3 µM
